We go through five compounds from publication PMC10221466, “Isolation of Nocuolin A and Synthesis of New Oxadiazine Derivatives. Design, Synthesis, Molecular Docking, Apoptotic Evaluation, and Cathepsin B Inhibition” (Marine Drugs, 2023).

The structures appear in SMILES notation. “Also recorded” adds a separate entry of the source. Where two headings read alike, the source gives them in different places. Starred links: 1 amine or outer side, 2 acyl side, 3 side chain; linkers in the order of their positions; H or OH if unused. Positions of bridges follow the written chain, without caps; N, C: chain ends. Non-standard residues stand in square brackets, D forms with d. Residues, ends and D or L forms follow the SMILES beside them. Chains are numbered I, II in the order given. Actinocin(9to1) = Cc1c2oc3c(C)ccc(C(=O)[*:1])c3nc-2c(C(=O)[*:2])c(N)c1=O; NMeV = CN[C@H](C(=O)O)C(C)C; Sar = CNCC(=O)O

The target in data set [1] is T1, cathepsin B (Mus musculus, UniProt P10605).
T1 construct: Cathepsin B activity in the cell medium; endogenous in cells; host or cells: Hepa-1c1c7 (CRL-2026)
T1 sequence (P10605 80-339): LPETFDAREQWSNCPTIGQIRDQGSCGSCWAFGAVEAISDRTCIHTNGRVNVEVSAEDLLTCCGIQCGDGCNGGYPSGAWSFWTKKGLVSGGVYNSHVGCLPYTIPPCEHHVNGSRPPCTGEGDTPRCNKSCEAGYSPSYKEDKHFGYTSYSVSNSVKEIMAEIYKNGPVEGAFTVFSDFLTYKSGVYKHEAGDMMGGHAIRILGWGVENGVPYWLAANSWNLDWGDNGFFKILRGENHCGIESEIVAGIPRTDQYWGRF
The data set is described as follows: Inhibition of cathepsin B activity, FL83B cells. The conditions noted are these: FL83B non-tumour cells. It is filed as cell-based. As for the experimental part: (§1) For the determination of the cathepsin B’s inhibition activity, its superficial expression in two tumour cell lines (ACHN and Hepa-1c1c7 cells) and two non-tumour cell lines (TKPTS and FL83B cells) was evaluated by flow cytometry.
(§2) Cathepsin B activity in the cell medium was evaluated by using a fluorogenic substrate: Abz-Gly-Ile-Val-Arg~Ala-Lys(Dnp)-OH. This peptide substrate was purchased from Bachem AG (Bubendorf, Switzerland). The reactions were performed at 40 °C for 10 min [38]. Stock solutions of inhibitory compounds were prepared in DMSO (in a concentration of 10 mM). From these stock solutions, increasing concentrations of the inhibitory compounds (1 and 100 nM) were prepared. […] Fluorescence was measured with excitation/emission wavelength values of 320 and 420 nm, respectively, using the Cary Eclipse fluorescence spectrophotometer (Agilent Technologies, Melbourne, Australia).
(§3) All analyses were performed using version 9.0.0 of GraphPad Prism Software LLC from 1994–2020 (www.graphpad.com, accessed on 2 January 2023). Using non-linear regression, the values of 50% cytotoxic concentration (CC50) and 50% inhibitory concentration (IC50) were determined. In addition, a one-way ANOVA statistical analysis was performed to assess whether the differences between the values were statistically significant (p < 0.05; p < 0.001, Tukey’s multiple comparisons test). All experiments were performed in triplicate.

Data set [2] concerns the target T1, cathepsin B. The data set can be described thus: Inhibition of cathepsin B activity, Hepa-1c1c7 cells. It is filed as cell-based. The conditions noted are these: Hepa-1c1c7 tumour cells. As for the experimental part: as §1, §2, §3
The next data set concerns C57BL/6 mice. The data set can be described thus: Acute toxicity in vivo. The conditions noted are these: 4 mg/kg i.p.; for Physical aspect and weight after the third day of treatment: mice, day 3. As for the experimental part: Adult male C57BL/6 mice weighing 25–35 g were purchased from the Centre for Laboratory Animals of the Faculty of Medicine from the University Autónoma of Madrid (Spain) and maintained under controlled temperature conditions (22 ± 2 °C), with a constant 12 h light-dark cycle and with access to food and water ad libitum.
Five groups (five mice per group) were selected for this study.
All animals were kept under observation for 7 days, during which their physical aspect, behaviour, and the number of deaths were recorded daily. The negative control (normal saline solution) received only the same quantity of the vehicle (distilled water). These tests were carried out in triplicate. All the surviving animals were euthanised at the end of the study, and their vital organs were individually observed by necropsy and checked for overt pathology.

Data set [3] deals with T1, cathepsin B. The data set can be described thus: Inhibition of cathepsin B activity, TKPTS cells. It is filed as cell-based. The conditions noted are these: TKPTS non-tumour cells. The procedure: as §1, §2, §3
For a further data set, the system named is ACHN cells. The data set is described as follows: SRB viability assay, ACHN cells. It is filed as cell-based. The conditions noted are these: Homo sapiens, 72 h. From the text:
(§4) Two tumour cell lines, ACHN (Human kidney carcinoma) and Hepa-1c1c7 (Human liver carcinoma), and two non-tumour cell lines, TKPTS (Mus musculus kidney normal) and FL83B (Mus musculus liver normal), were used in this study. The cell lines were purchased by the company VALORALIA I MÁS D, SL. From LGC Standards, which is the exclusive distributor of American Type Culture Collection (ATTC) products. […] Likewise, Hepa-1c1c7 (CRL-2026 BSL 1) is an epithelial cell line that was isolated from the liver of a patient with hepatoma. On the other hand, TKPTS (CRL-3361 BSL 2) is a normal cell line with epithelial-like morphology that was isolated in 1997 from the proximal tubule of a mouse kidney. Finally, FL83B (CRL-2390 BSL 1) is a hepatocyte cell that was isolated from the liver of a 15- to 17-day-old foetal mouse in 1969. The cells were maintained in a Dulbecco's modified eagle medium (DMEM, Sigma-Aldrich St. Louis, USA) supplemented with 2 mM L-glutamine (AppliChem, Denmark), 10% foetal bovine serum (FBS, Sigma-Aldrich, USA), 100 units/mL of penicillin and 100 µg/mL of streptomycin (Fisher Scientific, Pittsburgh, USA) in culture flasks, in an incubator with a humidified atmosphere containing 5% CO2, at 37 °C under hypoxic conditions (1% O2), managing to mimic the tumour microenvironment in vivo.
(§5) Cells (200 µL, 2 × 10^4 cells/well) were seeded in 96-well plates and were cultured for 12 h at 37 °C under hypoxic conditions (1% O2). Subsequently, the samples dissolved in dimethyl sulfoxide (DMSO ≥ 99.9% Sigma-Aldrich, CAS Number 67-68-5) were added at different concentrations for 72 h. Actinomycin D (ACT ≥ 95% Sigma-Aldrich, CAS Number 50-76-0) was used as a positive control. Cells were then fixed with 10% trichloroacetic acid (TCA ≥ 99.0% Sigma-Aldrich, CAS Number 76-03-9) for 1 h at 4 °C. After washing with distilled water, 100 μL of 0.4% sulforhodamine B (SRB Dye content 75 % Sigma-Aldrich, CAS Number 3520-42-1) in 1% acetic acid (AcOH ≥ 99.0% Sigma-Aldrich, CAS Number 64-19-7) were added to each well and incubated for 20 min. After washing them three times with 1% TCA, the plates were air-dried, and stained cells were dissolved with 100 μL/well of 10 mM unbuffered tris(hydroxymethyl)aminomethane (Tris Base ≥ 99.9% Sigma-Aldrich, CAS Number 77-86-1). The optical density of the microplates was measured at 540 nm, using an ELISA plate reader, SpectraMax® i3, Molecular Devices.
(§6) All analyses were performed using version 9.0.0 of GraphPad Prism Software LLC from 1994–2020 (www.graphpad.com, accessed on 2 January 2023). Using non-linear regression, the values of 50% cytotoxic concentration (CC50) and 50% inhibitory concentration (IC50) were determined. […]
(In general: The SRB assay estimates cell density from bound dye.)

The subject of a further data set is Hepa-1c1c7 cells. The data set is described as follows: SRB viability assay, Hepa-1c1c7 cells. It is filed as cell-based. The conditions noted are these: Mus musculus.
From the text: as §4, §5, §6

Data set [4] is described as follows: SRB viability assay, FL83B cells. It is filed as cell-based. Conditions: mouse, FL83B non-tumour cell line, hypoxic conditions (1% O2).
From the text: as §4, §5, §6

Data set [5] can be described thus: SRB viability assay, TKPTS cells. It is filed as cell-based. Conditions: mouse, TKPTS non-tumour cell line, hypoxic conditions (1% O2).
From the text: as §4, §5, §6

For data set [6], the target named is T2, cathepsin B (Homo sapiens, UniProt P07858).
T2 construct: Cathepsin B activity in the cell medium; endogenous in cells; host or cells: ACHN (CRL-1611)
The data set is described as follows: Inhibition of cathepsin B activity, ACHN cells. It is filed as cell-based. The conditions noted are these: ACHN tumour cells. The procedure: as §1, §2, §3

Setting [7] is: ACHN tumour cell line, SRB, hypoxic conditions (1% O2), read-out: CC50.
Where [8] appears, read: Hepa-1c1c7 tumour cell line, SRB, 72 h, hypoxic conditions (1% O2), read-out: CC50.
Setting [9] is: FL83B normal foetal liver hepatocyte cells.
Where [10] appears, read: TKPTS normal kidney proximal tubule cells.

With `CCCNC(=O)[C@H]1O[C@@H]1C(=O)N[C@H](C(=O)N1CCC[C@H]1C(=O)O)[C@@H](C)CC` (relative stereo) [CA 074, reference compound], the values for the Ki at cathepsin B [1], on cathepsin B [2] and on cathepsin B [3] were 3.08 ± 0.19 nM, 5.99 ± 0.64 nM and 2.39 ± 0.12 nM, respectively. For the same compound, in the data set on C57BL/6 mice, the “Physical aspect and weight after the third day of treatment” value (from here on “Physical aspect and weight”) is “active and showed no apparent weight loss”.

Regarding `Cc1c2oc3c(C)ccc(C(=O)N[C@@H]4C(=O)N[C@H](C(C)C)C(=O)N5CCC[C@H]5C(=O)N(C)CC(=O)N(C)[C@@H](C(C)C)C(=O)O[C@@H]4C)c3nc-2c(C(=O)N[C@@H]2C(=O)N[C@H](C(C)C)C(=O)N3CCC[C@H]3C(=O)N(C)CC(=O)N(C)[C@@H](C(C)C)C(=O)O[C@@H]2C)c(N)c1=O` [Actinomycin, Actinomycin D, reference compound] (I: T[dV]P[Sar][NMeV] / II: T[dV]P[Sar][NMeV]; ester I:1-I:C, II:1-II:C; linker I:N-II:N via Actinocin(9to1)), the cytotoxic concentration (CC50) – broadly, the concentration that lowers cell viability or growth by half – with ACHN cells (ACHN) worked out at 9 ± 0.6 nM; with Hepa-1c1c7 cells (Hepa-1c1c7, 72 h), 14 ± 0.6 nM. Further, the half-maximal cytotoxic concentration (CC50) at 72 h was determined as 6 ± 0.6 nM in data set [4] and 3 ± 0.5 nM in data set [5].

In the case of `CCCCCC1=NN(C(=O)CCO)O[C@H](CCCCC)C1` [Compound 1, 1-[(6R)-5,6-dihydro-4,6-dipentyl-2H-1,2,3-oxadiazin-2-yl]-3-hydroxypropan-1-one], the inhibitory constant (Ki) (as a rule, the equilibrium dissociation constant of an inhibitor or competing ligand from its target) on cathepsin B [1] was determined as 2.61 ± 0.02 nM; on cathepsin B [6], 3.06 ± 0.13 nM; at cathepsin B [2], 3.37 ± 0.24 nM; at cathepsin B [3] it was 2.13 ± 0.04 nM. In addition, the CC50 in the data set on ACHN cells (setting [7]) turned out to be 760 ± 90 nM; with Hepa-1c1c7 cells (setting [8]) it was 1250 ± 60 nM. Also, the 50% cytotoxic concentration (CC50) at 72 h is 2360 ± 100 nM in [4] (setting [9]) and 1100 ± 50 nM in data set [5] (setting [10]). Moreover, the “Physical aspect and weight” value in the data set on C57BL/6 mice was “active and showed no apparent weight loss”.

Take `CCCCCC1=NN(C(=O)CCOC(C)=O)O[C@H](CCCCC)C1` [Compound 2, 3-[(6R)-5,6-dihydro-4,6-dipentyl-2H-1,2,3-oxadiazin-2-yl]-3-oxopropyl acetate]: the Ki on cathepsin B [1] was found to be 0.66 ± 0.09 nM; on cathepsin B [6] it was 5.67 ± 0.68 nM; at cathepsin B [2], 6.59 ± 0.65 nM; on cathepsin B [3], 0.49 ± 0.05 nM. Moreover, the CC50 in the data set with ACHN cells (setting [7]) worked out at 220 ± 30 nM; in the data set on Hepa-1c1c7 cells (setting [8]), 630 ± 50 nM. For the same compound, the values for the CC50 at 72 h in data set [4] (setting [9]) and in data set [5] (setting [10]) were 1940 ± 80 nM and 1060 ± 40 nM, respectively. In addition, in the data set on C57BL/6 mice, the “Physical aspect and weight” value is “weight loss and signs of disease (bowed backs, loss of hair shine, and slow movements)”.

Turning to `CCCCCC1=NN(C(=O)CCOC(=O)CCC(=O)O)O[C@H](CCCCC)C1` [Compound 3, 4-{3-[(6R)-5,6-Dihydro-4,6-dipentyl-2H-1,2,3-oxadiazin-2-yl]-3-oxopropoxy}-4-oxobutanoic acid], the inhibition constant (Ki) on cathepsin B [1] turned out to be 4.55 ± 0.81 nM; at cathepsin B [6], 1.52 ± 0.13 nM; at cathepsin B [2], 1.76 ± 0.24 nM; on cathepsin B [3], 3.29 ± 0.4 nM. Moreover, the CC50 amounted to 730 ± 100 nM with ACHN cells (setting [7]) and 910 ± 80 nM in the data set with Hepa-1c1c7 cells (setting [8]). The CC50 at 72 h stood at 2800 ± 90 nM in data set [4] (setting [9]) and 1620 ± 60 nM in data set [5] (setting [10]). The “Physical aspect and weight” value in the data set with C57BL/6 mice is “active and showed no apparent weight loss”. Also, in the data set with C57BL/6 mice (murine model, 4 mg/kg), the In vivo toxicity result was “no in vivo toxicity; also recorded: did not show toxicity in vivo”.
